This note sets out measurements from ChEMBL document CHEMBL3045185, “Characterization of metabolites of fungicidal cymoxanil in a sensitive strain of Botrytis cinerea” (J Agric Food Chem, 2008).

What is called EC50 is the concentration at which the effect is half-maximal. For orientation: half-life means how long it takes for the measured level to halve.

The test system of one data set is Botrytis cinerea. Put plainly: Fungicidal activity against drug sensitive Botryotinia fuckeliana assessed as inhibition of germ tube elongation. It is filed as functional, organism-based.
A short description of data set [1]: Half life in drug sensitive Botryotinia fuckeliana cultures. As to conditions: botrytis cinerea, in vivo; call rule not given here.
A short description of data set [2]: Half life in soil assessed as compound degradation through hydrolysis and microbial degradation.
[3] abbreviates: Botrytis cinerea, read-out: EC50.

≈ marks a conversion by molar mass, not a printed value.

On to `CCNC(=O)NC(=O)/C(C#N)=N/OC` [CYMOXANIL], for which the EC50 in the data set with Botrytis cinerea (setting [3]) stood at 0.25 µg/mL (≈ 1.26 µM). Moreover, the figures for the half-life in data set [1] and in data set [2] were at most 120 min and under 2880 min, respectively.
With `CCNC(=O)N1C(=O)C(C#N)=NC1(C)C`, the EC50 entry in the data set on Botrytis cinerea is “Not Active”.
Consider `CCN1C(=O)NC(=O)/C1=N/OC`, for which, in the data set with Botrytis cinerea, the EC50 result was “Not Active”.
Consider `CCN1C(=O)NC(=O)C1=O`, for which the EC50 entry in the data set on Botrytis cinerea is recorded as “Not Active”.
Turning to `CC(=O)NC(C#N)C(=O)O` (configuration not stated), the EC50 in the data set with Botrytis cinerea (setting [3]) turned out to be 0.025 µg/mL (≈ 0.176 µM).
